The nature of series [1]: Apparent clearance during terminal phase in male Sprague-Dawley rat at 2 mg/kg, iv measured after 48 hrs by triple quadrupole mass spectrometric analysis. Type of series: ADME, organism-based. The settings on record: in vivo.
Series [2] can be described thus: Cmax in male Sprague-Dawley rat at 10 mg/kg, po measured after 48 hrs by triple quadrupole mass spectrometric analysis. Type of series: ADME, organism-based. The settings on record: in vivo.
In series [3] the target is T1, Histone deacetylase 7 (Homo sapiens, UniProt Q8WUI4).
T1 sequence (Q8WUI4 whole entry): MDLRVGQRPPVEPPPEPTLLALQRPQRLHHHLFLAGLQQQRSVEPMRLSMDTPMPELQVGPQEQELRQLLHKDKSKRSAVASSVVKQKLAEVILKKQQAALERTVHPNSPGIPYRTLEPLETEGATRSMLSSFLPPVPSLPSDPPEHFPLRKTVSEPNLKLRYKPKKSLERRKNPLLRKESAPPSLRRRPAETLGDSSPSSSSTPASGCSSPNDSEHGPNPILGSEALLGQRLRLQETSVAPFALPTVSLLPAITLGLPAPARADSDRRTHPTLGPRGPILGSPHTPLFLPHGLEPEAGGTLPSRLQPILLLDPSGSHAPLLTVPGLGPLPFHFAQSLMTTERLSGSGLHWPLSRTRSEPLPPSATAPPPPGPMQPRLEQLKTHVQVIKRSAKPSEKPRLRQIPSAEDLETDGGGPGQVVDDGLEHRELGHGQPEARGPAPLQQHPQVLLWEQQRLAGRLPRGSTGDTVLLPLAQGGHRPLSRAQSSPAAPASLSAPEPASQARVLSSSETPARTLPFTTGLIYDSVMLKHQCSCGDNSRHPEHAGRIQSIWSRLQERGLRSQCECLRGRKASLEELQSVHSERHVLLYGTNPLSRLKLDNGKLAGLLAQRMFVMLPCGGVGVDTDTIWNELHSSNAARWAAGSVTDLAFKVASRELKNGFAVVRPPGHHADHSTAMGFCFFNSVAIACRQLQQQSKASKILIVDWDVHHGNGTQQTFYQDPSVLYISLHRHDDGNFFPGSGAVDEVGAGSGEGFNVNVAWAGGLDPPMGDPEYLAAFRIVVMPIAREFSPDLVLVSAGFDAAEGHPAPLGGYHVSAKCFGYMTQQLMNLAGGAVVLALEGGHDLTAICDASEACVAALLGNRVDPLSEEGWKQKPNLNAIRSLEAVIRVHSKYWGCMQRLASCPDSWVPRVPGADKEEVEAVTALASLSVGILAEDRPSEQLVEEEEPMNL
Description: Inhibition of N-terminal GST-tagged recombinant human HDAC7 (501 to 952 residues) extracted from baculovirus expression system using Ac-Leu-Gly-Lys (Tfa)-AMC as substrate preincubated for 5 mins followed by substrate addition and measured after 30 mins by fluorescence microplate reader analysis.

Series [4] can be described thus: AUC (0 to infinity) in male Sprague-Dawley rat at 10 mg/kg, po measured after 48 hrs by triple quadrupole mass spectrometric analysis. Type of series: ADME, organism-based. Particulars: in vivo.
A short description of series [5]: Half-life in male Sprague-Dawley rat at 2 mg/kg, iv measured after 48 hrs by triple quadrupole mass spectrometric analysis. Type of series: ADME, organism-based. The settings on record: in vivo.
Series [6] concerns B16-F10. Kind of series: Antitumor activity against mouse B16-F10 cells implanted in C57BL/6 mouse model assessed as reduction in tumor volume at 20 mg/kg/day, ip administered for 14 days. Type of series: functional, organism-based. The settings on record: time 14.0 day.
Series [7] deals with B16-F10. Description: Downregulation of p-STAT3 expression level in mouse B16-F10 cells at 0.1 to 2 uM incubated for 24 hrs by Western blot analysis. Particulars: dose 0.1-2 µM. Type of series: functional, cell-based. In general terms: A western blot detects proteins with antibodies after separation by electrophoresis.
The test system of series [8] is MCF7. Description: cells. The settings on record: Homo sapiens, MCF7, 48 h.
Series [9] addresses T2, Histone deacetylase 8 (Homo sapiens, UniProt Q9BY41).
T2 sequence (Q9BY41 whole entry): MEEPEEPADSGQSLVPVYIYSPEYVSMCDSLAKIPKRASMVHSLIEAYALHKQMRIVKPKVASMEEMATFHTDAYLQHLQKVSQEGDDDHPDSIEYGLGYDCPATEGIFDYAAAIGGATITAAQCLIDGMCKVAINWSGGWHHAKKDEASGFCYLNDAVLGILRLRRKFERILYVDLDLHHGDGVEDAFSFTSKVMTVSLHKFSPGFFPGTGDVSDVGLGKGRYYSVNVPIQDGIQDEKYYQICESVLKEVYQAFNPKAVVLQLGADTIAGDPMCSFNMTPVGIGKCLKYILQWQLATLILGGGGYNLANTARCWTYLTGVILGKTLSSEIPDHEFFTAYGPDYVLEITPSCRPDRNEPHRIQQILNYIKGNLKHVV
Kind of series: Inhibition of C-terminal His-tagged recombinant full length human HDAC8 extracted from baculovirus infected Sf9 insect cells preincubated for 5 mins followed by substrate addition and measured after 30 mins by fluorescence microplate reader analysis.

Series [10] can be described thus: Toxicity in C57 mouse assessed as myelosuppression by measuring MCV level at 20 mg/kg/day, IG administered for 14 days by heat map analysis. Type of series: organism-based. Particulars: in vivo, po, 336 h, time 14 day.
The subject of series [11] is Jurkat. Kind of series: Effect on HDAC6 protein level in human Jurkat T cells at 0.1 to 2 uM incubated for 12 hrs by Western blot analysis. Type of series: functional, cell-based. The settings on record: dose 0.1-2 µM.
Series [12] can be described thus: AUC (0 to t) in male Sprague-Dawley rat at 2 mg/kg, iv measured after 48 hrs by triple quadrupole mass spectrometric analysis. Type of series: ADME, organism-based. Particulars: in vivo.
A short description of series [13]: Toxicity in C57 mouse assessed as change in ALB level at 20 mg/kg/day, IG administered for 14 days by heat map analysis. Type of series: organism-based. Particulars: in vivo, po, 336 h, time 14 day.
Series [14] in a line: Toxicity in C57 mouse assessed as myelosuppression by measuring neutrophil level at 20 mg/kg/day, IG administered for 14 days by heat map analysis. Type of series: organism-based. Particulars: in vivo, po, 336 h, time 14 day.
The nature of series [15]: Toxicity in C57BL/6 mouse model implanted with mouse B16-F10 cells assessed as body weight loss at 20 mg/kg/day, ip administered for 14 days. Type of series: organism-based. Particulars: in vivo, 336 h, time 14 day.
Series [16] in a line: Toxicity in C57 mouse assessed as myelosuppression by measuring PCT level at 20 mg/kg/day, IG administered for 14 days by heat map analysis. Type of series: organism-based. The settings on record: in vivo, po, 336 h, time 14 day.
Series [17] relates to HepG2. Description: Cytotoxicity against human HepG2 cells assessed as reduction in cell viability at 3.3 to 10 uM incubated for 48 hrs by MTT assay. Type of series: functional, cell-based. Particulars: dose 3.3-10 µM. (Formazan colour is commonly taken as a measure of viable cells.)
Series [18] is described as follows: Toxicity in C57 mouse assessed as myelosuppression by measuring WBC level at 20 mg/kg/day, IG administered for 14 days by heat map analysis. Type of series: organism-based. The settings on record: in vivo, po, 336 h, time 14 day.
In series [19] the target is T3, Histone deacetylase 8 (Homo sapiens) (UniProt Q9BY41).
T3 sequence (whole entry): T2 sequence (Q9BY41 whole entry)
Description: Inhibition of HDAC8 in human Jurkat T cells assessed as increase in acetylated SMC3 level incubated for 12 hrs by Western blot analysis. Type of series: cell-based.

A short description of series [20]: Apparent clearance during terminal phase in male Sprague-Dawley rat at 10 mg/kg, po measured after 48 hrs by triple quadrupole mass spectrometric analysis. Type of series: ADME, organism-based. Particulars: in vivo.
Series [21] deals with B16-F10. Kind of series: Effect on acetylated histone H3 protein level in mouse B16-F10 cells at 0.1 to 2 uM incubated for 12 hrs by Western blot analysis. Particulars: dose 0.1-2 µM. Type of series: functional, cell-based.
For series [22], the system named is B16-F10. Kind of series: cells. Particulars: Mus musculus, B16-F10, 48 h.

This is an account of results in ChEMBL document CHEMBL6153170 (J Med Chem, 2025).

By Cmax is commonly meant the peak of the concentration-time curve. For orientation: pIC50 means the IC50 on a negative log10 scale, so that one unit is a factor of ten. By AUC is commonly meant the area under the concentration-time curve, a measure of exposure. Low readings indicate low exposure, high ones high exposure. For orientation: half-life means how long it takes for the measured level to halve. Usually AUC(0-t) stands for exposure summed from dosing to a finite time, without extrapolation to infinity.

The structures appear in SMILES notation. pIC50: −log10 of the molar value. The source made the active and inactive calls. The rule behind the calls is not given here.

In the case of `COc1nc(-c2cccc(-c3ccccc3)c2C)ccc1CNCCCCCCC(=O)NO`, the CLz/F in series [1] came out at 16.2 mL/min/kg; in [20], 25 mL/min/kg. This molecule also came in with a Cmax in [2] of 194 ng/mL. Further, the pIC50 was < 4.00 in [3], < 5.00 in series [8], < 5.00 in [9] and 5.09 in [22]. In series [4], this molecule gave an AUC of 1076.36 ng·h/mL. The molecule also had a half-life in [5] of 6.9 h. Also, the result in series [6] and in [7] was Active. Besides, the Activity entry in [10] is reported as “Non-toxic”; in series [13], “Non-toxic”; in series [14], “Non-toxic”; in [15], “Non-toxic”; in series [16], “Non-toxic”; in series [17], “Active; Mild Cytotoxicity Observed”. Also, the Activity entry in [18] is “Non-toxic”; in [21], “Active; Negligible Effect Observed”. For the same molecule, in series [11], the outcome was inactive. Besides, the AUC(0-t) at 48 h in series [12] was 1140 ng·h/mL. Also, the inhibition result in series [19] is “inactive”.
